In US20020077289A1, “Angiostatin and endostatin binding proteins and methods of use” (priority 2000, published 2002):
Where two headings read alike, the source gives them in different places. Bridges are numbered along the chain shown (N, C = ends). Where no end group is shown, it is not given here.

Assays:
B16-BL6 melanoma cells = assay: B16-BL6 experimental metastasis assay; format: in vivo, C57BL/6J mice
Experimental: C57BL/6J mice were injected via the tail vein with 5×10^4 B16-BL6 melanoma cells on day 0. On day 3, groups of five mice received daily subcutaneous doses of either buffer control, 1.5 nmol (1.5 mg/kg/day) of rhEndostatin in combination with 0, 15, 75 or 375 nmol of control or E37 peptide, or control or E37 peptide alone for eleven days. All mice were sacrificed on day 14, and the number of pulmonary surface metastases in each animal counted. Error bars indicate standard deviation of the mean.
C57BL/6J mice (n=8) were injected intravenously (i.v.) with 5×10^4 B16-BL6 cells/mouse. Three days later treatment commenced. 100 μl of citrate-phosphate buffer (66 mM Sodium Phosphate, 17 mM Citric acid, 59 mM NaCl pH 6.2) containing 1.5 nmol of rhEndostatin and 100 μl of PBS containing either 0, 15, 75 or 375 nmol of control or E37 peptide were mixed and injected subcutaneously (s.c.) daily for 11 days. All mice were then sacrificed, their lungs removed and the number of surface metastases counted. Results were analyzed for statistical significance using the 2-tailed Student's t-test.
The following experiment was conducted to determine the interaction of E37 peptide and Endostatin protein. Briefly, the B16BL6 experimental metastasis assay, as known to those of skill in the art and further described in International Patent Application number PCT/US99/11418, was performed as follows. 5×10^4 B16-BL6 cells in 200 μl of PBS were injected into C57BL/6J mice via the tail vein. Three days post injection treatment was started. The injection received by eight groups of mice were: 1) citrate phosphate/PBS buffer, 2) ^30 μg Endostatin protein (in 100 μl PBS), 3) 30 μg Endostatin protein (in 200 μl PBS), 4) 30 μg Endostatin protein plus 50 times molar excess of control peptide (in 200 μl PBS), 5) 30 μg Endostatin protein plus 250 times molar excess of control peptide (in 200 μl PBS), 6) 30 μg Endostatin protein plus 10 times molar excess of E37 peptide (in 200 μl PBS), 7) 30 μg Endostatin protein plus 50 times molar excess of E37 peptide (in 200 μl PBS), and 8) 30 μg Endostatin protein plus 250 times molar excess of E37 peptide (in 200 μl PBS). Doses were administered daily for eleven days posterior to the thoracic cavity subcutaneously. All mice were sacrificed, the lungs removed and the number of surface metastases in each animal were counted under a stereo microscope.

HUVEC microfilaments = assay: Fluorescent staining of formalin fixed endothelial cells with Alexa 488-labeled rhEndostatin; format: cell-based, human; details: 50-fold molar excess (100 μM) of peptide; 40 μg/ml (2 μM) Alexa-rhEndostatin
Experimental: (A), HUVECs, (B), HAECs and (C), HMVECs were incubated in the presence of 40 micrograms per milliliter (μg/ml) Alexa 488-labeled rhEndostatin and photographed at 100× magnification under Alexa 488 (green) excitation wavelength. (D) and (E), HUVECs were incubated simultaneously in anti-tropomyosin TM311 ascites fluid and 40 micrograms per milliliter (μg/ml) Alexa 488-labeled rhEndostatin followed by incubation in Alexa 594 conjugated goat anti-mouse IgG (H+L). The same field was photographed under Alexa 488 (green) and Alexa 594 (red) excitation wavelengths at 100× magnification.
HUVECs were incubated in the presence of 40 micrograms per milliliter (μg/ml) Alexa 488-labeled rhEndostatin alone (A), or in the presence of a 50-fold molar excess of control peptide (B), or E37 peptide (C). Cells were photographed using the same exposure times at 100x magnification under Alexa 488 (green) excitation wavelength.
To detect the binding of Alexa-labeled rhEndostatin 1×10^4 HUVEC, HMVEC and HAECs were plated on 1.5% gelatin coated Nalge Nunc Lab Tek II chamber slides (Naperville, Ill.) and fixed in 10% neutral buffered formalin followed by a methanol wash. The chamber slides were incubated in PBS/1% calf serum containing 40 μg/ml (2 μM) of Alexa 488-labeled rhEndostatin (Narum et al., manuscript in preparation) for 1 hr at room temperature. The slides were washed in PBS, coverslips mounted using fluorescent mounting media (Kirkegaard and Perry Laboratories, Gaithersburg, Md.) and cells photographed under Alexa 488 excitation wavelength. Co-localization studies were performed as above except cells were incubated in PBS/1% calf serum containing 1:200 mouse anti-tropomyosin TM311 (Sigma, St. Louis, Miss.) and 40 μg/ml of Alexa 488-labeled rhEndostatin followed by incubation with goat anti-mouse IgG (H+L) conjugated to Alexa 594 (Molecular Probes, Eugene, Oregon). The same fields were photographed under Alexa 488 and Alexa 594 wavelengths. […]

[1] = target: T1, recombinant human Endostatin protein (Homo sapiens, UniProt P39060); assay: Phage display panning on Endostatin protein; format: binding
T1 construct: recombinant human Angiostatin protein, K1-4 protein, or recombinant human Endostatin protein were coated overnight; made in house; host or cells: Pichia pastoris
T1 sequence (P39060 1572-1754 limits assumed): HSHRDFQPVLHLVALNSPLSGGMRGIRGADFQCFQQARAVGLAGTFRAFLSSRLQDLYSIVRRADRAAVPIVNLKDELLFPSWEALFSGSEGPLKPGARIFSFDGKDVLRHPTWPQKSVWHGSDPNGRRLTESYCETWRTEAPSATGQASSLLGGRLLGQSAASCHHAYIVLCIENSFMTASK
Source text: The Ph.D.-C7C, a disulfide constrained 7-mer phage-display library (New England BioLabs, Beverly, Mass.), was screened as recommended by the manufacturer. Following a third round of amplification individual phage were isolated and the peptide sequences deduced by DNA sequencing.
(§1) The Ph.D.-7 phage display library (New England BioLabs Cat #8100), a combinatorial library consisting of random peptide 7-mers, was screened for 7 amino acid binding peptides. The Ph.D.-7 phage display library consists of linear 7-mer peptides fused to the pIII coat protein of M13 via a Gly-Gly-Gly-Ser flexible linker. The library contains 2.8×10^9 independent clones. The Ph.D. library is useful for identifying targets requiring binding elements concentrated in a short stretch of amino acids.
The Ph.D.-C7C library (New England BioLabs Cat # 8120) is a combinatorial library consisting of random peptide 7-mers flanked by cysteine residues that under non-denaturing conditions are disulfide bonded resulting in the display of cyclized peptides. In non-reducing conditions, the cysteines form a disulfide bond resulting in each peptide being constrained in a disulfide loop. The library contains 3.7×10^9 independent clones that, like the Ph.D.-7 library, result in peptides fused to the pIII coat protein of M13 via a Gly-Gly-Gly-Ser flexible linker. […]

[2] = test system: recombinant human Angiostatin protein; assay: Phage display panning on Angiostatin protein; format: binding
Chain of recombinant human Angiostatin protein (P00747 103-352 limits assumed): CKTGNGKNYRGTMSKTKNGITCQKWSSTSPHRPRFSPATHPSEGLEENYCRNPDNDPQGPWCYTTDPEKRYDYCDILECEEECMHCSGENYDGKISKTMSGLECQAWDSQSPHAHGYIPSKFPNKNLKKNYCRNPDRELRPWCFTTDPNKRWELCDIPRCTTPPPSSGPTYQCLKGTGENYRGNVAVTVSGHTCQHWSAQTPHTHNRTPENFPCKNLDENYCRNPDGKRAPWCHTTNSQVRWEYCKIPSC
Source text: as §1
The Ph.D.-C7C library (New England BioLabs Cat # 8120) is a combinatorial library consisting of random peptide 7-mers flanked by cysteine residues that under non-denaturing conditions are disulfide bonded resulting in the display of cyclized peptides. In non-reducing conditions, the cysteines form a disulfide bond resulting in each peptide being constrained in a disulfide loop. The library contains 3.7×10^9 independent clones that, like the Ph.D.-7 library, result in peptides fused to the pIII coat protein of M13 via a Gly-Gly-Gly-Ser flexible linker. Constrained libraries are useful in the identification of structural epitopes. The Ph.D.-C7C library was screened for the binding of 7 amino acid cyclized binding peptides.
The phage display libraries were screened following the manufacturers' recommendations. […]

[3] = target: recombinant human tropomyosin isoform 3 (human); assay: SPR (BIAcore 3000), rhTM3 immobilized, steady state model

With “CTHWWHKRCGGGS (disulfide 1-9 (inferred)) [E37 peptide]” the “decrease in the anti-tumor activity of rhEndostatin” value (“decrease in the anti-tumor activity” below) (B16-BL6 melanoma cells; co-injection of 1.5 nmol rhEndostatin with 15 nmol E37 peptide) was 11%, the “decrease in the anti-tumor activity” value (B16-BL6 melanoma cells; co-injection of 1.5 nmol rhEndostatin with 75 nmol E37 peptide) was 30.5% and the “decrease in the anti-tumor activity” value (B16-BL6 melanoma cells; co-injection of 1.5 nmol rhEndostatin with 375 nmol E37 peptide) was 84.5%. The “number of metastatic lesions on the lungs versus control group” value (B16-BL6 melanoma cells; up to 375 nmol/day E37 peptide in the absence of rhEndostatin) was “not statistically different from that of the control group”, the “inhibition of binding of Alexa-labeled rhEndostatin to HUVEC microfilaments” value (HUVEC microfilaments) was “inhibited the binding of rhEndostatin to HUVEC microfilaments” and the “binding to Endostatin protein (phage display selection)” value [1] was “binds”. For the same molecule, the “binding to Endostatin protein (phage display selection)” value ([1]; listed as E37) was “found to bind rhEndostatin”.

“H A I Y P R H G G G S (HAIYPRHGGGS) [Peptide A10]” was tested, and the “binding to Angiostatin protein (phage display selection)” value [2] was “binds”.

B1: recombinant human Endostatin protein (protein)
chain: T1 sequence (P39060 1572-1754 limits assumed)
modifications: Alexa Fluor 488 label in some experiments
With B1 the Kd [3] was 100 µM.
